Tested on: brains, heart, liver, muscle, and DRG of the NHPs
Test: Maturation of TTM-001 and TTM-002 capsids, NGS enrichment in NHP tissues
Type: in vivo
Conditions: NGS, relative to AAV9 control; for Fold Enrichment relative to AAV9, Liver RNA (NHP): TTM-001 and TTM-002 matured AAV capsid variants
From the text: This Example describes maturation of the AAV9 capsid variants, TTM-001 (SEQ ID NO: 981 (amino acid) and 983 (DNA), comprising SEQ ID NO: 941 (encoded by SEQ ID NO: 942)) and TTM-002 (SEQ ID NO: 982 (amino acid) and 984 (DNA), comprising SEQ ID NO: […] (encoded by SEQ ID NO: 944)) in NHPs to further enhance their transduction and biodistribution in the central nervous system as well as other tissues, and evolve the AAV capsid variants to provide further cross-species compatibility. Two approaches were used to mature the TTM-001 and TTM-002 capsid sequences in order to randomize and mutate within and around the peptide insert comprised within loop IV of the capsid variant. […] In the first maturation approach, sets of three contiguous amino acids were randomized across the mutagenesis region in the TTM-001 and TTM-002 sequences, which spanned from position 450 to position 466, numbered according to SEQ ID NO: 981 and 982. In the second maturation approach, mutagenic primers were used to introduce point mutations at a low frequency, scattered across the mutagenesis region in the TTM-001 and TTM-002 sequences ranging from position 449 to position 466, numbered according to SEQ ID NO: 981 and 982. AAV capsid variants arising from each maturation approach for TTM-001 and TTM-002 were pooled together, for subsequent testing and characterization in NHPs.
The library of pooled matured AAV capsid variants generated using the first maturation approach and the second maturation approach for the TTM-001 and TTM-002 AAV capsid variants were injected into two NHPs. […] Following RNA recovery and RT-PCR amplification, a systematic NGS enrichment analysis was performed to calculate the fold enrichment ratio relative to an AAV9 control, and the peptides comprised within the variants were identified.
Following the RNA recovery and NGS analysis from the second maturation approach, approximately 680,000 capsid variants were identified. The 680,000 matured capsid variants were then filtered based on samples with a raw virus count greater than 10 and a coefficient of variance (CV) of less than 1, which was calculated for each peptide across the brain samples taken from the two NHPs. […] Using this filtering criteria, this led to approximately 64,000 matured capsid variants.

Sequence	Fold Enrichment relative to AAV9, DRG (NHP)	Fold Enrichment relative to AAV9, Brain (NHP)	Fold Enrichment relative to AAV9, Heart (NHP)	Fold Enrichment relative to AAV9, Liver DNA (NHP)	Fold Enrichment relative to AAV9, Liver RNA (NHP)	Fold Enrichment relative to AAV9, Muscle (NHP)
KTINGSGSPHSKFFIQQT	0.000 fold	0.000 fold	0.000 fold	6.916 fold	63.255 fold	0.000 fold
KTINGSGSPHSKFKNQQT	0.000 fold	0.000 fold	0.000 fold	1.074 fold	21.951 fold	0.000 fold
KTINGSGSPHSKFRQQQT	0.000 fold	0.000 fold	0.000 fold	3.260 fold	38.665 fold	0.000 fold
KTINGSGSPHSKGCTQQT	0.000 fold	0.000 fold	0.000 fold	0.529 fold	26.068 fold	0.000 fold
KTINGSGSPHSKIRGQQT	0.000 fold	0.000 fold	0.000 fold	1.584 fold	18.150 fold	0.000 fold
KTINGSGSPHSKIRRQQT	0.000 fold	0.000 fold	0.000 fold	1.388 fold	53.528 fold	0.000 fold
KTINGSGSPHSKKTSQQT	0.000 fold	0.000 fold	0.000 fold	1.344 fold	15.244 fold	0.000 fold
KTINGSGSPHSKKVFQQT	0.000 fold	0.000 fold	0.000 fold	4.480 fold	43.747 fold	0.000 fold
KTINGSGSPHSKLCTQQT	0.000 fold	0.000 fold	0.000 fold	1.269 fold	18.674 fold	0.000 fold
KTINGSGSPHSKLFWQQT	0.000 fold	0.000 fold	0.000 fold	4.178 fold	37.022 fold	0.000 fold
KTINGSGSPHSKLKRQQT	0.000 fold	0.000 fold	0.000 fold	6.884 fold	76.103 fold	0.000 fold
KTINGSGSPHSKLPKQQT	0.000 fold	0.000 fold	0.000 fold	0.274 fold	11.856 fold	0.000 fold
KTINGSGSPHSKMICQQT	0.000 fold	0.000 fold	0.000 fold	0.144 fold	21.036 fold	0.000 fold
KTINGSGSPHSKMPCQQT	0.000 fold	0.000 fold	0.000 fold	1.063 fold	15.343 fold	0.000 fold
KTINGSGSPHSKNSRQQT	0.000 fold	0.000 fold	0.000 fold	1.093 fold	11.280 fold	0.000 fold
KTINGSGSPHSKPFRQQT	0.000 fold	0.000 fold	0.000 fold	8.700 fold	29.842 fold	0.000 fold
KTINGSGSPHSKPKRQQT	0.000 fold	0.000 fold	0.000 fold	2.832 fold	52.881 fold	0.000 fold
KTINGSGSPHSKQRPQQT	0.000 fold	0.000 fold	0.000 fold	2.347 fold	11.130 fold	0.000 fold
KTINGSGSPHSKRHRQQT	0.000 fold	0.000 fold	0.000 fold	4.648 fold	73.225 fold	0.000 fold
KTINGSGSPHSKRKRQQT	0.000 fold	0.000 fold	0.000 fold	3.027 fold	11.215 fold	0.000 fold
KTINGSGSPHSKRNYQQT	0.000 fold	0.000 fold	0.000 fold	5.528 fold	12.781 fold	0.000 fold
KTINGSGSPHSKRRAQQT	0.000 fold	0.000 fold	0.000 fold	5.906 fold	26.523 fold	0.000 fold

Source: patent US20260250318A1, “COMPOSITIONS AND METHODS FOR CROSSING THE BLOOD BRAIN BARRIER” (VOYAGER THERAPEUTICS, INC., priority 2022, published 2026)
